Laboratory results as given in patent publication US7524862B2 (Boehringer Ingelheim International GmbH, priority 2004, dated 2009).

Biological target: T1, human hMCH-1R (Homo sapiens, UniProt Q99705)
T1 construct: expressed in transfected cells; host or cells: CHO/Galpha16 cells (stably transfected), membranes
Experiment: MCH-1 receptor binding test
Conditions: membranes from CHO/Galpha16 cells stably transfected with hMCH-1R; 125I-MCH
Experimental: Membranes from CHO/Galpha16 cells stably transfected with human hMCH-1R are resuspended using a syringe (needle 0.6×25 mm) and diluted in test buffer (50 mM HEPES, 10 mM MgCl2, 2 mM EGTA, pH 7.00; 0.1% bovine serum albumin (protease-free), 0.021% bacitracin, 1 μg/mL aprotinin, 1 μg/mL leupeptin and 1 μM phosphoramidone) to a concentration of 5 to 15 μg/mL. […] After the incubation, the reaction is filtered using a cell harvester through 0.5% PEI treated fiberglass filters (GF/B, Unifilter Packard). The membrane-bound radioactivity retained on the filter is then determined after the addition of scintillator substance (Packard Microscint 20) in a measuring device (TopCount of Packard). […] The analysis of the concentration binding curve is carried out on the assumption of one receptor binding site.

T1 sequence (Q99705 whole entry): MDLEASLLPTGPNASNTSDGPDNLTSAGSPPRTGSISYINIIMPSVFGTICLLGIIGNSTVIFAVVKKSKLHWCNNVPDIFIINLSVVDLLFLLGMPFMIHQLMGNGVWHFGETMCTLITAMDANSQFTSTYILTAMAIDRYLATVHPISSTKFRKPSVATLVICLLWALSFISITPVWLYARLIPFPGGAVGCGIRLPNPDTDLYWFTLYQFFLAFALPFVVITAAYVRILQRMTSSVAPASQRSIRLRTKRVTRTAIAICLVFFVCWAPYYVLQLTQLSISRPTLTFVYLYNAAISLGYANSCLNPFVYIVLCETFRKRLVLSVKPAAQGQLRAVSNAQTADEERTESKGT

Row | SMILES | IC50
1 | Cc1cc(N2CCC(C)CC2)nc2ccc(C#Cc3ccc(-c4ccc(Cl)cc4)cn3)cc12 [Example 1.43, 6-[5-(4-chlorophenyl)pyridin-2-ylethynyl]-4-methyl-2-(4-methylpiperidin-1-yl)quinoline] | 246 nM
2 | Cc1cc(NC(C)C)nc2ccc(C#Cc3ccc(-c4ccc(Cl)cc4)cn3)cc12 [Example 1.44, {6-[5-(4-chlorophenyl)pyridin-2-ylethnyl]-4-methylquinolin-2-yl}isopropylamine] | 6.8 nM
